From the METLIN SMRT retention time set (Domingo-Almenara et al. 2019) come the findings set out here.

The nature of the series: gradient 5% acetonitrile 3 min, to 50% in 2 min, to 85% in 15 min, held 3 min, 100 µL/min. The conditions noted are these: column: Zorbax Extend-C18 2.1 x 50 mm; eluents: water / acetonitrile, 0.1% formic acid. A digest of the protocol: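 Retention times of pure standards were taken from adduct peaks that were selected by computer and manually inspected. Over 3 months, mixtures of ~100 molecules were run by HPLC–quadrupole time-of-flight mass spectrometry in positive and negative ionization mode. The Zorbax Extend-C18 column (2.1 × 50 mm, 1.8 μm) ran at 100 μL/min in water and acetonitrile, each containing 0.1% formic acid, with 40 μL dead volume and 900 μL dwell volume.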
In turn, `CCN(CC)CCNS(=O)(=O)c1cc(-c2nc(C)c(C)s2)sc1C` had an RP-LC retention time of 656 s. To `CCN1C(=O)c2cccnc2Sc2cc(NC(=O)c3ccc(C)c(F)c3)ccc21` belongs 896 s; to `O=C(NCc1ccc(F)cc1Cl)C1CCN(c2cncnc2N2CCCC2)CC1`, 665 s. Compound `COc1cccc(NC(=O)N2CCN(Cc3nc4cc(Cl)ccc4o3)CC2)c1` yielded an RP-LC retention time of 731 s.

As for `CN1C(=O)[C@H]2CN(Cc3cccc(Br)c3)C[C@H]2C1=O`, the RP-LC retention time was 608 s.

`CCCN(CC1CCOC1)C(=O)c1cc(F)ccc1Cl` (centres undefined) showed an RP-LC retention time of 821 s. To `O=C(c1cccs1)N1CCN(c2cc(Cl)ccc2Cl)CC1` belongs 1020 s. `O=C(Cn1c(CO)nc2ccccc21)N1CCCc2ccccc21` gave an RP-LC retention time of 628 s.

Compound `CS(=O)(=O)c1ccc2nc(NCCc3cccs3)sc2c1` showed an RP-LC retention time of 738 s. Turning to `CCOC(=O)c1cn(Cc2ccccc2C)c2nc(C)ccc2c1=O`, the RP-LC retention time amounted to 909 s. To `CCOC(=O)c1sc2nc(NC(=O)COc3ccccc3)sc2c1C` belongs 1040 s. Compound `Cc1noc(-c2ccc(NC(=O)C3c4ccccc4Oc4ccccc43)cc2)n1` displayed an RP-LC retention time of 983 s.

`Cc1ccn2cc(-c3ccc(C)c(NS(=O)(=O)c4ccccc4)c3)nc2c1` gave an RP-LC retention time of 655 s. Take `Cc1cc(C(=O)Nc2nc3ccc(S(=O)(=O)N(C)C)cc3s2)on1`: the RP-LC retention time was determined as 740 s. Consider `CCOc1ncccc1CNC(=O)CNC(C)=O`, for which the RP-LC retention time came to 568 s. As to `CC(=O)Nc1ccc(NC(=O)CCNc2c(-c3ccc(F)cc3)nc3cnccn23)cc1`, the RP-LC retention time is 630 s. `c1ccc2c(CCNc3nc(N4CCCC4)c4n[nH]nc4n3)c[nH]c2c1`: the RP-LC retention time worked out at 621 s.

As to `O=C(Nc1ccc(F)cc1)N1CCC(n2cnc3ccc(Cl)cc3c2=O)CC1`, the RP-LC retention time is 828 s. `CC(C)c1cccc(NC(=O)C2CCc3nc(N4CCOCC4)ncc3C2)c1` (centres undefined) registered an RP-LC retention time of 755 s. `CC1(C)CC(=O)c2cn(-c3ccccc3)c(=O)c(C(=O)N3CCc4ccccc43)c2C1` showed an RP-LC retention time of 910 s.

`CCc1ccc(C2=C(C)C(N3CCCN(C(=O)c4ccncc4)CC3)=NS2(=O)=O)cc1` displayed an RP-LC retention time of 709 s. Compound `Cc1ccc(NC(=O)CN(C)S(=O)(=O)c2cc(C(=O)N3CCC(C)CC3)n(C)c2)cc1Cl` displayed an RP-LC retention time of 998 s. The compound `Cn1c(=O)c2c(-c3ccc(F)cc3)c(C#N)c(N)nc2n(C)c1=O` yielded an RP-LC retention time of 757 s. To `CCOc1ccc(NC(=O)N2CCc3cn(CC)c4cccc(c34)C2)cc1` belongs 952 s.

Turning to `COC(=O)c1sccc1NC(=O)N1CCc2c([nH]c3ccccc23)C1c1ccc(OC)cc1` (centres undefined), the RP-LC retention time was determined as 1230 s. Under `CCOc1ccc(NC(=O)Cn2cccc2-c2nnc(-c3ccccc3)o2)cc1` stands 990 s; under `CCCCNC(=O)c1ccc2c(c1)N(C)C(=O)C1CCCCN21` (centres undefined), 813 s. For the compound `CC1(C)CC2CC(C)(CN2c2nc(-c3ccccc3)nc3ccccc23)C1` (centres undefined), the RP-LC retention time was 948 s. As for `O=C(COc1ccccc1)NCCS(=O)(=O)N1CCN(c2cccc(Cl)c2)CC1`, the RP-LC retention time came to 926 s. As to `COc1ccccc1NC(=O)N1CCC2(CC1)NC(=O)c1ccc(F)cc1N2C`, the RP-LC retention time came out at 745 s. `O=C(NC1CCCC1)C1CCN(Cc2noc(-c3ccc(F)cc3)n2)CC1` registered an RP-LC retention time of 647 s. Compound `Cc1cc(Cl)ccc1S(=O)(=O)N1CCC2(CC1)c1nccn1CCN2C` registered an RP-LC retention time of 697 s.

In turn, `CCOC(=O)Cc1ccc(NC(=O)N2CCCC2c2c(C)noc2C)cc1` (centres undefined) yielded an RP-LC retention time of 775 s. For `Cc1ccc(C)c(NC(=O)NCCn2c(-c3ccncc3)nc3cccnc32)c1`, the RP-LC retention time amounted to 638 s. In turn, `COc1ccc(CN2CN=C(Nc3nc(C)c4cccc(OC)c4n3)NC2)cc1` displayed an RP-LC retention time of 750 s. `CCOc1ccc(NC(=O)c2c(NC(C)=O)sc3c2CCCC3)cc1` gave an RP-LC retention time of 1090 s. Consider `CCC1Oc2ccc(S(=O)(=O)N3CCC(C(=O)Nc4ccc(C)cc4)CC3)cc2NC1=O` (centres undefined), for which the RP-LC retention time came out at 903 s. Compound `O=C(NCCCCCCNC(=O)ON=C1CCCCC1)ON=C1CCCCC1` displayed an RP-LC retention time of 926 s. `O=C(Cn1c(=O)oc2ccccc21)N1CCN(c2ccccn2)CC1` showed an RP-LC retention time of 598 s. `COc1ccc(S(=O)(=O)N2CCCC(C(=O)NC3CC3)C2)cc1Cl` (centres undefined) came in with an RP-LC retention time of 780 s. `COc1ccc(-c2cc(N3CCN(C(=O)c4c(F)cccc4Cl)CC3)ncn2)cc1` yielded an RP-LC retention time of 612 s.

In the case of `O=C(NCc1cccnc1)C1CCN(Cc2cc3ccccc3n2Cc2ccccc2Cl)CC1`, the RP-LC retention time is 630 s. Compound `CNC(=O)N1CCCC(c2cccc(C(=O)NCc3ccc(N(C)C)cc3)c2)C1` (centres undefined) had an RP-LC retention time of 607 s. Under `O=C(CCn1c(N2CCCC2)nc2ccsc2c1=O)N1CCN(c2ccccc2F)CC1` stands 849 s; under `Cc1cc2c(cc1S(=O)(=O)N1CCCC1C(=O)NCCCc1ccccc1)OCC(=O)N2` (centres undefined), 816 s; under `Cc1ccc(S(=O)(=O)N2CCC(C(=O)NCc3csc(-c4cccs4)n3)CC2)cc1`, 910 s. To `COCCN1C(=O)c2ccccc2C(C(=O)NCCCN2CCOCC2)C1c1cccs1` (centres undefined) belongs 805 s; to `Cc1cc(C)c2c(N3CCCC3)nc(C(=O)N(C)Cc3ccccc3)nc2n1`, 654 s; to `O=C(Cc1csc(Nc2cccc(Cl)c2)n1)N1CCN(C(=O)c2ccco2)CC1`, 718 s. In turn, `Cc1cc(-c2nnc(-c3ccc(F)cc3)o2)c(C)n1CC(=O)N(C)Cc1ccccc1` registered an RP-LC retention time of 1000 s. The compound `CCN1CCCC1CN(CC(=O)N1CCNCC1)S(=O)(=O)c1cc(C)c(C)cc1C` (centres undefined) showed an RP-LC retention time of 588 s. Consider `COC(=O)CNC(=O)C1COc2ccc(NC(=O)c3ccc(Br)cc3)cc2C1` (centres undefined), for which the RP-LC retention time was 794 s. On to `CC(=O)N[C@@H]1CN(C(=O)Cc2ccccc2Br)C[C@H]1CO`, for which the RP-LC retention time came out at 610 s.

As for `COC[C@@H]1CN(Cc2ccc(C#N)cc2)C[C@H]1c1ccccn1`, the RP-LC retention time came out at 553 s. In turn, `Cc1ccc(CC(=O)NC2CCN(c3ccc(F)cc3)C2=O)cc1` (centres undefined) came in with an RP-LC retention time of 828 s. Take `CCN(CC)C(=O)c1ccc2c(c1)N(CC(=O)Nc1cc(C)cc(C)c1)C(=O)CS2`: the RP-LC retention time was 858 s. `COc1ccc(NC(=O)c2nc(N3CCC(C)CC3)c3cnn(C)c3n2)cc1` came in with an RP-LC retention time of 966 s. `Cc1nn(C(C)C(=O)NCCCN2CCCC2=O)c(=O)c2nn(-c3ccccc3)c(C)c12` (centres undefined): the RP-LC retention time worked out at 648 s.

`Cc1ccc2c(Nc3cccc(C(C)C)c3)c(C(=O)N3CCCCC3C)cnc2n1` (centres undefined): the RP-LC retention time turned out to be 720 s.
